Experimental data as given in US20250235543A1, “MODIFIED PROTEINS AND PROTEIN DEGRADERS” (Cullgen (Shanghai), Inc., priority 2021, published 2025).
Read-outs that look alike come from different tables or passages of the source.

Tests used:
CDK4 = target: T1, CDK4 (Homo sapiens, UniProt P11802); experiment: CDK4 percentage degradation in Calu-1 cells (immunoblotting); assay type: cell-based; conditions: for inhibition at 10 µM: read-out: CDK4 Degradation (10 μM); for inhibition at 0.2 µM: read-out: CDK4 Degradation (200 nM)
T1 construct: endogenous in cells; host or cells: Calu-1
T1 sequence (P11802 2-303 limits assumed): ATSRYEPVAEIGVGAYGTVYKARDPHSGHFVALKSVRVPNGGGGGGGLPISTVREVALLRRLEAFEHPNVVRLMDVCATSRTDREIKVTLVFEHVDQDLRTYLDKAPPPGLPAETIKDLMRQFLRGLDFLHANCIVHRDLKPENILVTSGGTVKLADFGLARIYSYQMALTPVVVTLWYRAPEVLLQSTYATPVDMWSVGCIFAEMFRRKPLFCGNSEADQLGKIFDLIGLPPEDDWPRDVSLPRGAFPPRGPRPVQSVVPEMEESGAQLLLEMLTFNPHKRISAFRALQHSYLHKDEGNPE
T1 sequence (P24385 whole entry partner): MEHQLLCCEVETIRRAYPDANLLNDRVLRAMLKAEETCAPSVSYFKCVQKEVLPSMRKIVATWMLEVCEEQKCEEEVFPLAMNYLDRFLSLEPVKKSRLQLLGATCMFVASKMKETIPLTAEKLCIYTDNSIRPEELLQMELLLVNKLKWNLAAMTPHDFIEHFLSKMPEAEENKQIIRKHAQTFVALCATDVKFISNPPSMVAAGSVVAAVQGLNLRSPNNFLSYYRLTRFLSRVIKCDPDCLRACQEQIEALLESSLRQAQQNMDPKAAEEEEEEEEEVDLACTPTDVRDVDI
T1 sequence (Q16531 2-1140 limits assumed, further chain): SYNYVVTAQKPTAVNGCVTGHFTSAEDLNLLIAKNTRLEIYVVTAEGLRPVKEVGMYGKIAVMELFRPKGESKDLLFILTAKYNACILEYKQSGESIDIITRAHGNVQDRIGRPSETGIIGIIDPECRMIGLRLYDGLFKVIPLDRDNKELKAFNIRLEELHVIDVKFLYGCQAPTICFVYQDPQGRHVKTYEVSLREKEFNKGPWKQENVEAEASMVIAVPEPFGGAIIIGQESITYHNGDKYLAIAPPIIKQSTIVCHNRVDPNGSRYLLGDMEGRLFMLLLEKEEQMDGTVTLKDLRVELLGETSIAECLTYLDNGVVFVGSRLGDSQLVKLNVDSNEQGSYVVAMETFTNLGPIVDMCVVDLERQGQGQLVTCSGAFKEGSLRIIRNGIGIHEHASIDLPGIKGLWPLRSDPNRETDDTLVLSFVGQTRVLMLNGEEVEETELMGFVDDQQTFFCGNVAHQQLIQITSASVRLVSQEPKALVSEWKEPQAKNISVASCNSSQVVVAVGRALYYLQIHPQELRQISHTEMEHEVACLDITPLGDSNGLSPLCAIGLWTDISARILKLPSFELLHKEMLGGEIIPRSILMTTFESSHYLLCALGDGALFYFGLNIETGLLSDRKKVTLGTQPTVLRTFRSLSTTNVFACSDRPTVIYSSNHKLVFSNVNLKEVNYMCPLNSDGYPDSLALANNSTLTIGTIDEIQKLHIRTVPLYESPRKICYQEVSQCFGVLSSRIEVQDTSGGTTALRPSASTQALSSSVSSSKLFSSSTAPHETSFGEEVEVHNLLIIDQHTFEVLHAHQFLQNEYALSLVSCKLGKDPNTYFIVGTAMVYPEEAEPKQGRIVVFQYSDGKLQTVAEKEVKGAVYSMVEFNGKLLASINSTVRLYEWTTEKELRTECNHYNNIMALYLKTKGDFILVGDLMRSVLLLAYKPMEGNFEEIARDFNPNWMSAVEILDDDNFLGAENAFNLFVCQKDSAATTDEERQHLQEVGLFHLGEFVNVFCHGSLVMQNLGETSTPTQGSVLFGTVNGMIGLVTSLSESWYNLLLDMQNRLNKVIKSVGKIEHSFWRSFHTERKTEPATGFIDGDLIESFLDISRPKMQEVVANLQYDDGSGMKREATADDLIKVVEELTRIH
Outline: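 CDK4 degradation was measured by immunoblotting. Cells were washed in cold PBS and lysed in RIPA buffer with inhibitors for 30 min at 4° C., then spun at 13,000 rpm to clear. After BCA protein determination, lysates were heated at 99° C. for 5 min in Laemmli buffer, resolved on SDS-PAGE, imaged on a ChemiDoc MP with ECL substrate, and band intensities quantified.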

cyclin D1 = experiment: Cyclin D1 percentage degradation in Calu-1 cells (immunoblotting); assay type: cell-based; conditions: 16 hours
Outline: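 Cyclin D1 degradation was assessed by western blot. Clarified lysates, obtained by RIPA lysis with inhibitors and centrifugation at 13,000 rpm, were normalized by BCA protein assay and separated by SDS-PAGE. Bands were detected with Western ECL Substrate on a Bio-Rad ChemiDoc MP Imaging system and quantified in Image Lab software to derive percentage degradation.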

SMILES	inhibition at 10 µM (CDK4; Calu-1 cells, 16 hours)	inhibition at 0.2 µM (CDK4; Calu-1 cells, 200 nM, 16 hours)	CyclinD1 Degradation (10 μM) (cyclin D1)	CyclinD1 Degradation (200 nM) (cyclin D1)	inhibition at 0.2 µM (CDK4; Calu-1, 16 h)
CC(=O)c1c(C)c2cnc(Nc3ccc(N4CCN(CC(=O)NCCOCCOCCNc5cccc(C(=O)Nc6nc(C)c(C)s6)c5C)CC4)cn3)nc2n(C2CCCC2)c1=O [CPD-104, 3-((2-(2-(2-(2-(4-(6-((6-Acetyl-8-cyclopentyl-5-methyl-7-oxo-7,8-dihydropyrido[2,3-d]pyrimidin-2-yl)amino)pyridin-3-yl)piperazin-1-yl)acetamido)ethoxy)ethoxy)ethyl)amino)-N-(4,5-dimethylthiazol-2-yl)-2-methylbenzamide]	–	30 to 50%	–	A (protein percentage degradation >=80%)	–
CC(=O)c1c(C)c2cnc(Nc3ccc(N4CCN(CC(=O)NCCC(=O)Nc5ccccc5C(=O)Nc5nc(C)c(C)s5)CC4)cn3)nc2n(C2CCCC2)c1=O [CPD-146, 2-(3-(2-(4-(6-((6-Acetyl-8-cyclopentyl-5-methyl-7-oxo-7,8-dihydropyrido[2,3-d]pyrimidin-2-yl)amino)pyridin-3-yl)piperazin-1-yl)acetamido)propanamido)-N-(4,5-dimethylthiazol-2-yl)benzamide]	–	–	–	D (protein percentage degradation <30%)	< 30%
CC(=O)c1c(C)c2cnc(Nc3ccc(N4CCN(CC(=O)NCCCCCCNc5cccc(C(=O)Nc6nc(C)c(C)s6)c5C)CC4)cn3)nc2n(C2CCCC2)c1=O [CPD-101, 3-((6-(2-(4-(6-((6-Acetyl-8-cyclopentyl-5-methyl-7-oxo-7,8-dihydropyrido[2,3-d]pyrimidin-2-yl)amino)pyridin-3-yl)piperazin-1-yl)acetamido)hexyl)amino)-N-(4,5-dimethylthiazol-2-yl)-2-methylbenzamide]	–	50 to 80%	–	A (protein percentage degradation >=80%)	–
CC(=O)c1c(C)c2cnc(Nc3ccc(N4CCN(CC(=O)NCCCCCCCNc5cccc(C(=O)Nc6nc(C)c(C)s6)c5C)CC4)cn3)nc2n(C2CCCC2)c1=O [CPD-102, 3-((7-(2-(4-(6-((6-Acetyl-8-cyclopentyl-5-methyl-7-oxo-7,8-dihydropyrido[2,3-d]pyrimidin-2-yl)amino)pyridin-3-yl)piperazin-1-yl)acetamido)heptyl)amino)-N-(4,5-dimethylthiazol-2-yl)-2-methylbenzamide]	–	50 to 80%	–	A (protein percentage degradation >=80%)	–
CC(=O)c1c(C)c2cnc(Nc3ccc(N4CCN(C(=O)CCNc5cccc(C(=O)Nc6nc(C)c(C)s6)c5C)CC4)cn3)nc2n(C2CCCC2)c1=O [CPD-112, 3-((3-(4-(6-((6-Acetyl-8-cyclopentyl-5-methyl-7-oxo-7,8-dihydropyrido[2,3-d]pyrimidin-2-yl)amino)pyridin-3-yl)piperazin-1-yl)-3-oxopropyl)amino)-N-(4,5-dimethylthiazol-2-yl)-2-methylbenzamide]	–	–	–	D (protein percentage degradation <30%)	< 30%
CC(=O)c1c(C)c2cnc(Nc3ccc(N4CCN(C(=O)CCOCCOCCOCCOCCNc5cccc(C(=O)Nc6nc(C)c(C)s6)c5C)CC4)cn3)nc2n(C2CCCC2)c1=O [CPD-123, 3-((15-(4-(6-((6-Acetyl-8-cyclopentyl-5-methyl-7-oxo-7,8-dihydropyrido[2,3-d]pyrimidin-2-yl)amino)pyridin-3-yl)piperazin-1-yl)-15-oxo-3,6,9,12-tetraoxapentadecyl)amino)-N-(4,5-dimethylthiazol-2-yl)-2-methylbenzamide]	–	–	–	A (protein percentage degradation >=80%)	50 to 80%
CC(=O)c1c(C)c2cnc(Nc3ccc(N4CCN(CC(=O)NCCOCCOCCOCCOCCOCCNc5ccc(C(=O)Nc6ncc(C(C)C)s6)c(C)c5)CC4)cn3)nc2n(C2CCCC2)c1=O [CPD-006, 4-((1-(4-(6-((6-Acetyl-8-cyclopentyl-5-methyl-7-oxo-7,8-dihydropyrido[2,3-d]pyrimidin-2-yl)amino)pyridin-3-yl)piperazin-1-yl)-2-oxo-6,9,12,15,18-pentaoxa-3-azaicosan-20-yl)amino)-N-(5-isopropylthiazol-2-yl)-2-methylbenzamide]	–	< 30%	–	D (protein percentage degradation <30%)	–

Second part, led by results:

inhibition at 10 µM (CDK4; Calu-1 cells, 16 hours)	inhibition at 0.2 µM (CDK4; Calu-1 cells, 200 nM, 16 hours)	SMILES	CyclinD1 Degradation (10 μM) (cyclin D1)	CyclinD1 Degradation (200 nM) (cyclin D1)	inhibition at 0.2 µM (CDK4; Calu-1, 16 h)
< 30%	–	Cc1nc(NC(=O)c2ccccc2NC(=O)CCOCCOCCOCCOCCOCCOCCNC(=O)CN2CCN(Cc3ccc(Nc4ncc(F)c(-c5cc(F)c6nc(C)n(C(C)C)c6c5)n4)nc3)CC2)sc1C [CPD-285, N-(4,5-Dimethylthiazol-2-yl)-2-(1-(4-((6-((5-fluoro-4-(4-fluoro-1-isopropyl-2-methyl-1H-benzo[d]imidazol-6-yl)pyrimidin-2-yl)amino)pyridin-3-yl)methyl)piperazin-1-yl)-2-oxo-6,9,12,15,18,21-hexaoxa-3-azatetracosan-24-amido)benzamide]	D (protein percentage degradation < 30%)	–	–
–	> 80%	COc1ccc(NC(=O)c2ccc(N(C)C)cc2NC(=O)CCOCCOCCNC(=O)CN2CCN(c3ccc(Nc4ncc5c(C)c(C(C)=O)c(=O)n(C6CCCC6)c5n4)nc3)CC2)nn1 [CPD-365, 2-(3-(2-(2-(2-(4-(6-((6-Acetyl-8-cyclopentyl-5-methyl-7-oxo-7,8-dihydropyrido[2,3-d]pyrimidin-2-yl)amino)pyridin-3-yl)piperazin-1-yl)acetamido)ethoxy)ethoxy)propanamido)-4-(dimethylamino)-N-(6-methoxypyridazin-3-yl)benzamide]	–	A (protein percentage degradation >=80%)	–
< 30%	–	Cc1nc(NC(=O)c2ccccc2NC(=O)CCNC(=O)CN2CCN(c3ccc(Nc4ncc(F)c(-c5cc(F)c6nc(C)n(C(C)C)c6c5)n4)nc3)CC2)sc1C [CPD-301, N-(4,5-Dimethylthiazol-2-yl)-2-(3-(2-(4-(6-((5-fluoro-4-(4-fluoro-1-isopropyl-2-methyl-1H-benzo[d]imidazol-6-yl)pyrimidin-2-yl)amino)pyridin-3-yl)piperazin-1-yl)acetamido)propanamido)benzamide]	D (protein percentage degradation < 30%)	–	–
–	< 30%	CC(=O)c1c(C)c2cnc(Nc3ccc(N4CCN(C(=O)CCCCCCNc5cccc(C(=O)Nc6nc(C)c(C)s6)c5C)CC4)cn3)nc2n(C2CCCC2)c1=O [CPD-138, 3-((7-(4-(6-((6-Acetyl-8-cyclopentyl-5-methyl-7-oxo-7,8-dihydropyrido[2,3-d]pyrimidin-2-yl)amino)pyridin-3-yl)piperazin-1-yl)-7-oxoheptyl)amino)-N-(4,5-dimethylthiazol-2-yl)-2-methylbenzamide]	–	D (protein percentage degradation <30%)	–
–	< 30%	CC(=O)c1c(C)c2cnc(Nc3ccc(N4CCN(CC(=O)NCCOCCOCCC(=O)Nc5ccccc5CNc5nc(C)c(C)s5)CC4)cn3)nc2n(C2CCCC2)c1=O [CPD-154, 3-(2-(2-(2-(4-(6-((6-Acetyl-8-cyclopentyl-5-methyl-7-oxo-7,8-dihydropyrido[2,3-d]pyrimidin-2-yl)amino)pyridin-3-yl)piperazin-1-yl)acetamido)ethoxy)ethoxy)-N-(2-(((4,5-dimethylthiazol-2-yl)amino)methyl)phenyl)propanamide]	–	D (protein percentage degradation <30%)	–
50 to 80%	–	Cc1nc(NC(=O)c2ccccc2NC(=O)CCOCCOCCOCCOCCOCCOCCNC(=O)CN2CCN(c3ccc(Nc4ncc5cc6n(c5n4)C4(CCCCC4)CNC6=O)nc3)CC2)sc1C [CPD-327, N-(4,5-Dimethylthiazol-2-yl)-2-(2-oxo-1-(4-(6-((6′-oxo-7′,8′-dihydro-6′H-spiro[cyclohexane-1,9′-pyrazino[1′,2′:1,5]pyrrolo[2,3-d]pyrimidin]-2′-yl)amino)pyridin-3-yl)piperazin-1-yl)-6,9,12,15,18,21-hexaoxa-3-azatetracosan-24-amido)benzamide]	A (protein percentage degradation >= 80%)	–	–
–	> 80%	COc1ccc(NC(=O)c2ccccc2NC(=O)CCOCCOCCNC(=O)CN2CCN(c3ccc(Nc4ncc5c(C)c(C(C)=O)c(=O)n(C6CCCC6)c5n4)nc3)CC2)nn1 [CPD-085, 2-(3-(2-(2-(2-(4-(6-((6-Acetyl-8-cyclopentyl-5-methyl-7-oxo-7,8-dihydropyrido[2,3-d]pyrimidin-2-yl)amino)pyridin-3-yl)piperazin-1-yl)acetamido)ethoxy)ethoxy)propanamido)-N-(6-methoxypyridazin-3-yl)benzamide]	–	A (protein percentage degradation >=80%)	–
–	50 to 80%	CC(=O)c1c(C)c2cnc(Nc3ccc(N4CCN(CC(=O)NCCOCCOCCC(=O)Nc5ccccc5C(=O)Nc5ccn(C)n5)CC4)cn3)nc2n(C2CCCC2)c1=O [CPD-068, 2-(3-(2-(2-(2-(4-(6-((6-Acetyl-8-cyclopentyl-5-methyl-7-oxo-7,8-dihydropyrido[2,3-d]pyrimidin-2-yl)amino)pyridin-3-yl)piperazin-1-yl)acetamido)ethoxy)ethoxy)propanamido)-N-(1-methyl-1H-pyrazol-3-yl)benzamide]	–	A (protein percentage degradation >=80%)	–
30 to 50%	–	Cc1nc(NC(=O)c2ccccc2NC(=O)CCCCCNC(=O)CN2CCN(c3ccc(Nc4ncc5cc6n(c5n4)C4(CCCCC4)CNC6=O)nc3)CC2)sc1C [CPD-318, N-(4,5-Dimethylthiazol-2-yl)-2-(6-(2-(4-(6-((6′-oxo-7′,8′-dihydro-6′H-spiro[cyclohexane-1,9′-pyrazino[1′,2′:1,5]pyrrolo[2,3-d]pyrimidin]-2′-yl)amino)pyridin-3-yl)piperazin-1-yl)acetamido)hexanamido)benzamide]	D (protein percentage degradation < 30%)	–	–
